The source of these data is a melting point compilation (Tetko et al.; mined from patent text by program, amines drawn as free bases though some values may be those of a salt).

The compound `O=C1OC(c2ccccc2)=NC1=Cc1cc(Cl)ccc1Sc1cccs1` showed a melting point of 125 to 127 °C.

`CC1(C)C(=O)N([Si](C)(C)C)C(=O)N1[Si](C)(C)C` registered a melting point of 46 to 49 °C. Take `CS(=O)(=O)Oc1cccnc1`: the melting point fell in the range of 56 to 58 °C. `CC(=O)N1c2ccccc2Sc2ccccc21` registered a melting point of 210 to 211 °C. For the compound `CC(=O)C1CCC2C3CCC4CC(O)(Cc5ccccc5)CCC4(C)C3CCC12C` (centres undefined), the melting point was 133 to 141 °C.

`O=C(c1cccs1)N(CCCSc1ccncc1)c1ccccc1` had a melting point of 66 to 67 °C. On to `O=C(Oc1ccccc1)N1CCCc2nc3ccccc3c(Cl)c2C1`, for which the melting point turned out to be 137 °C. As to `CC(C)C(=O)N[C@H]1CC[C@H](CCN2CCN(c3nccc4c3OCC4)CC2)CC1`, the melting point came to 204 °C. With `CCOc1csc2c(O)c(SC)cnc12`, the melting point is 180 to 183 °C.

In the case of `Nc1sc2c(c1C(=O)c1cccs1)CCCC2`, the melting point lay within 115 to 118 °C.

Compound `CC(=O)Nc1cc2c(cc1[N+](=O)[O-])OC(C)(C)[C@@H](O)[C@@H]2N1CCCC1=O` (relative stereo) showed a melting point of 240 to 241 °C. `CCN1CCN(CCCC#Cc2cn(Cc3ncc(C)c(OC)c3C)c3nc(N)nc(Cl)c23)CC1` registered a melting point of 142 to 144 °C.

Turning to `CCOC(=O)Cc1cc2ccc(O)cc2oc1=O`, the melting point lay in the range of 168 to 170 °C. Regarding `CC1=NC(NC(=O)OCc2ccccc2)C(=O)N(CC(=O)C(C)(C)C)c2ccccc21` (centres undefined), the melting point turned out to be 68 °C.

`COC1=C(OC)C(=O)C2=C(CC(CCCCCCCCN3CCN(Cc4ccccc4)CC3)(c3ccccc3)C2)C1=O` displayed a melting point of 78 to 80 °C. In turn, `COc1ccc2nc3c(c(Cl)c2c1)C(=O)c1ccccc1-3` had a melting point of 232 to 234 °C.

Compound `NC(=O)CN(c1ccc(Cl)cc1C(O)c1ccccc1Cl)S(=O)(=O)c1ccc(Cl)c(Cl)c1` (centres undefined) came in with a melting point of 135 °C. As to `N#CC(Cc1ccc(-c2ccccc2)cc1)C(=O)N=NO` (centres undefined), the melting point worked out at 172 °C. The compound `O=C(O)c1ccc(-c2nc(-c3ccc(F)cc3)c(-c3ccncc3)[nH]2)cc1` had a melting point of 289 to 290 °C. The figure for `Nc1ccc(-c2ccc(N)cc2OC(F)(F)F)c(OC(F)(F)F)c1` is 67.5 to 68 °C. As for `Clc1cccc(Nc2nc3nonc3nc2Nc2cccc(Cl)c2)c1`, the figure is 238 °C; as for `CCOC(=O)C(C#N)=CC=CN(C)C`, 134 to 135 °C.

With `Nc1cccc(-c2ccc(C3CCNC3=O)cc2F)n1` (centres undefined), the melting point fell in the range of 185 to 188 °C.

Compound `COC(=O)C1=C(C)NC(C)=C(C(=O)OCC2CCCO2)C1c1ccccc1Br` (centres undefined) yielded a melting point of 170 to 172 °C. As for `CN1CCCc2cc(C=C3SC(=O)NC3=O)ccc21`, the melting point is 254 to 257 °C. For `COc1ccc(Nc2nc(Nc3cc4c(cc3OC)CCN(CC(=O)N(C)C)CC4)ncc2Cl)c(OC)n1`, the melting point is 67 to 76 °C.

In the case of `O=C(O)c1cccc(-c2ccc3c(c2)N(c2ccc(Cl)cc2Cl)CCCC3)c1`, the melting point was 131 to 132 °C. Turning to `CCOC(=O)N1CCC(N(C)C(=O)c2ccc(Cl)c(Cl)c2)C12CCCCC2` (centres undefined), the melting point fell in the range of 57 to 60 °C. As for `CN(C)Cc1cc([N+](=O)[O-])cc2c(Nc3cccc(Br)c3)c(C#N)cnc12`, the figure is 223 to 226 °C; as for `O=C(Nc1ccccc1)O[C@@H]1CN=C(c2cccs2)O[C@H]1c1ccccc1` (racemic), 98 °C.

In the case of `CCCCCCCCCCCCCCCCN=C=O`, the melting point fell in the range of 107 to 109 °C. In turn, `COc1c(CCc2ccc(F)cc2)cc(Cl)cc1C(N)=O` had a melting point of 85 °C.

For `O=C(c1ccccc1)c1cc2cc(Cl)ncc2[nH]1`, the melting point was 194 to 197 °C. Take `CC(Cn1ncnn1)n1nnc2cc3c(=O)n(CC4CC4)nnc3cc2c1=O` (centres undefined): the melting point was 134 to 136 °C. Compound `COCOc1c(OC)cc(C=O)cc1OC` gave a melting point of 52 to 53 °C. Regarding `Cc1c(C(=O)Nc2ccc(N3CCN(C4CCOCC4)CC3)c(C#N)c2)cnn1-c1ccccc1`, the melting point is 227 °C. Compound `CC(O)CC1NC(=O)c2ccccc21` (centres undefined) yielded a melting point of 100 to 102 °C. `CC(C)CCC(=O)Nc1c(C(O)(C(F)(F)F)C(F)(F)F)ccc2ccccc12` displayed a melting point of 62 to 63 °C. As for `CCNC(=O)[C@H]1CN(c2ccc3c(c2)sc(=O)n3C)C(=O)O1`, the figure is 224 to 226 °C; as for `CC(=O)Oc1c(C)c(C)c2c(nc(COc3ccc(CC4SC(=O)NC4=O)cc3)n2C)c1C` (centres undefined), 250 to 253 °C.

Consider `Cc1cccc(C(C)C)c1NC(=O)CCCCCBr`, for which the melting point was 66 to 67 °C. For `Cc1cccc(N(C)C(=O)c2cc(=O)n(C)c3ccc(C(O)(c4ccc(Cl)cc4)c4cncn4C)cc23)c1` (centres undefined), the melting point amounted to 185 °C.

The compound `CS(=O)(=O)c1ccc(C(CC2CCCC2)C(=O)Nc2ccc(Br)cn2)cc1Br` (centres undefined) returned a melting point of 83 to 86 °C.

`CCOC(=O)C=N[C@@H]1c2cc(C#N)ccc2OC(C)(C)[C@H]1O` (relative stereo) registered a melting point of 98 to 100 °C.

For `CN1C(=O)N(c2cc(F)c(C#N)cc2F)C(=O)CC1(N)C(F)(F)F` (centres undefined), the melting point amounted to 115 °C.

For the compound `CC(=O)Nc1c(C(=O)c2ccccc2)[nH]c2cc(C)ccc12`, the melting point lay in the range of 136 to 138 °C. As to `O=C(c1ccccc1)c1ccc2sc(NCCCO)nc2c1`, the melting point amounted to 162 °C. As to `COC(=O)COc1ccc(SCc2cc(-c3ccc(Cl)cc3)on2)c2c1CCC2`, the melting point was in the range of 112 to 114 °C. Compound `NCCCCn1cnc(-c2ccc(F)cc2)c1` yielded a melting point of 138 to 140 °C. `CCCCNC(=S)NC(Cc1ccccc1)C(=O)Nc1c(C(C)C)cccc1C(C)C` (centres undefined) registered a melting point of 214 to 215 °C.

On to `Cc1cc(Oc2nn(C)c(C(F)(F)F)c2Cl)ccc1[N+](=O)[O-]`, for which the melting point fell in the range of 72 to 73.5 °C. Regarding `COc1cc(C(=O)Nc2c(C)cc3cn[nH]c3c2C(=O)NC2(C3CC3)CC2)n(-c2ncccc2Cl)n1`, the melting point fell in the range of 150 to 154 °C. On to `CC(C)CC(=O)Nc1cccc(-c2ccnc3c(-c4cccc(N(C)C)c4)cnn23)c1`, for which the melting point was 182 to 184 °C. For the compound `O=C1c2ccccc2C(=O)N1OCc1ccn(C(c2ccccc2)(c2ccccc2)c2ccccc2)n1`, the melting point is 177 to 179 °C. As for `N#Cc1c(Br)c(Br)n(O)c1-c1ccc(Cl)cc1`, the figure is 208 to 209 °C; as for `CCCCc1oc2ccc(CO)cc2c1C1(c2ccc(O)cc2)OCCO1`, 100 to 101 °C. As to `Clc1ccnc2[nH]c(CCc3ccccc3)cc12`, the melting point was 159 to 160 °C.

In turn, `CC1CCCN(c2cc3nc(C(C)(C)C)sc3cc2N)C1` (centres undefined) yielded a melting point of 108 to 112 °C. As to `O=C(O)[C@H]1CN(C(=O)OCc2ccccc2)CCN1c1cc(Cl)ccc1[N+](=O)[O-]`, the melting point was in the range of 145 to 155 °C. For the compound `CC(=Cc1ccccc1)c1cc2c(cc1C)C(C)(C)CCC2(C)C`, the melting point fell in the range of 75 to 77 °C.

For the compound `O=C(c1ccc([N+](=O)[O-])cc1)N1CCCc2ccccc21`, the melting point lay within 86 to 88 °C.

Take `CCOC(=O)C=Cc1ccc(C(=O)O)cc1`: the melting point lay within 196 to 197 °C. With `NC(=O)c1[nH]c2cccnc2c1Sc1cccc(F)c1`, the melting point fell in the range of 235 to 237 °C. As for `CC(C)Oc1ccc(-c2nc3c4ccccc4ccc3n2C)cc1`, the melting point was 144 to 145 °C. For `CC1=Cc2ccsc2Sc2ccccc21`, the melting point is 70 to 71 °C. In turn, `Cc1cccc(COc2cccc(OCc3cc(=O)c4ccccc4n3C)c2)c1OCC(=O)O` came in with a melting point of 192 to 194 °C. The compound `CCOC(=O)C=C(C)NC(=O)Nc1cc(OC(C)C)c(Cl)cc1F` returned a melting point of 142 to 144 °C.

Compound `COc1cc(OC)c2c(=O)cc(-c3cc[nH]n3)oc2c1` displayed a melting point of 197 to 198 °C. `Oc1ccc(F)cc1C=C(Cl)Cl` returned a melting point of 55 to 57 °C. Take `c1csc(Cn2ccnc2C2=NCCN2)c1`: the melting point was 101 to 103 °C. As for `Cc1c(C(=O)O)ccc(S(C)(=O)=O)c1-c1ccon1`, the figure is 150 to 151 °C; as for `CC(C)C1Nc2ccc(S(=O)(=O)N3CCCCC3)cc2S(=O)(=O)N1` (centres undefined), 237 to 239 °C. Compound `CCn1ncnc1COc1nc2c(nnn2-c2ccccc2)c2ccccc12` showed a melting point of 192 to 195 °C. `Cc1oc(-c2ccccc2)nc1CN(C)Cc1ccc(C[C@@H](C(=O)O)n2cccc2)cc1` came in with a melting point of 133 to 135 °C. The figure for `CCC(CO)Nc1cc(C)nc(Oc2c(C)cc(Cl)cc2C)c1CO` (centres undefined) is 133 to 135 °C; for `N=c1ncccn1CCc1ccccc1Br` it is 97 to 98 °C; for `O=C(O)c1cn(Cc2ccccc2)c2cc(Cl)c(F)cc2c1=O` it is 250 °C. For `O=C(Cn1ccnc1)c1ccccc1`, the melting point was in the range of 121 to 122 °C. The figure for `CC(C)N(CC(O)(Cn1cncn1)c1ccc(Cl)cc1Cl)S(C)(=O)=O` (centres undefined) is 132 to 133 °C; for `O=c1[nH]c2ccc(-c3cccnc3)cc2cc1Br` it is 297 to 300 °C. The figure for `CCC(Oc1ccc(S(=O)(=O)c2ccc(C)nc2Nc2c(C)cc(C)cc2C)cc1)C(=O)OC` (centres undefined) is 111 to 113 °C; for `COC(=O)C(=C(C)C)N1C(=O)[C@H]([C@H](C)OC(=O)OCc2ccc([N+](=O)[O-])cc2)[C@@H]1Cl` it is 154 to 157 °C.

Compound `CCCCC(NS(=O)(=O)c1ccc(Cl)cc1)C(=S)Nc1ccc(CC(=O)OCC)cc1` (racemic) came in with a melting point of 70 to 73 °C. The figure for `CCCOc1n[nH]c(=O)n1C1CCCCC1` is 132 to 136 °C. The compound `CCN(CC)C(=O)CCc1cc2ccccc2c(-c2ccccc2)n1` displayed a melting point of 70 °C.

`COc1ccc(C(=O)C2=C(c3ccccc3)CCc3ccccc32)cc1`: the melting point fell in the range of 106 to 107 °C. As to `CC(C)C[C@@H](C=O)NC(=O)[C@H](Cc1c[nH]cn1)NC(=O)C(CCCCc1ccccc1)Cc1cccc2ccccc12` (some centres undefined), the melting point fell in the range of 87 to 92 °C.

Turning to `CCn1ncc(OCc2ccc(OCOC)cc2)c(Br)c1=O`, the melting point lay in the range of 104 to 106 °C. Consider `O=C(O)Cc1cn(-c2ccccc2)nc1OCc1ccccc1`, for which the melting point lay within 105 to 106 °C.

Broadly, the melting point is the temperature, or range, at which the solid turns liquid.
